Assays:
[1] = tested on: Caki-1 cells; assay: Transcriptional profiling by DNA microarray, Caki-1 cells; assay type: cell-based, human
Protocol: Expression profiling: Expression profiling of RNA samples was performed essentially as described (Lockhart et al., (1996) Nat. Biotechnol. 14:1675-80) using the Affymetrix human U95Av2 array. Briefly, RNA was isolated from 100 mm cell culture dishes, DNased, and 15 μg used as a template for double stranded cDNA synthesis according to standard protocols (Invitrogen). Reverse transcription was primed using a T7-modified oligo-dT primer (5-[…]-d(T)24-3′) (SEQ ID NO: 1). In vitro transcription was then performed on each double stranded cDNA synthesis, according to the manufacturer's (Enzo Diagnostics) instructions. The resultant cRNA products were purified using RNeasy columns (Qiagen), pooled, and quantitated spectrophotometrically. For each sample, 20 μg of in vitro transcribed cRNA was fragmented by heating the sample to 94° C. in the presence of 40 mM Tris-acetate, pH 8.1, 100 mM potassium acetate, and 30 mM magnesium acetate. […]
Data Analysis: Affymetrix CEL files from GeneChip 4.0 (Affymetrix) were imported into Resolver 2.0 under an empirically derived Affymetrix error model (Rosetta Inpharmatics). […] Accordingly, the statistical significance (P-value) of a given expression data point takes into account the underlying error associated with the Affymetrix transcript abundance measurements as determined by this platform-specific error model. […]

[2] = tested on: hamster PDK-4 mRNA in liver; assay: PDK-4 mRNA induction in liver of fat-fed hamsters; assay type: in vivo; details: single dose (GW9578 3 mg/kg, fenofibrate 100 mg/kg, gemfibrozil 500 mg/kg), 16 hour post-treatment
Protocol: FIG. 4A is a bar graph depicting the induction of PDK-4 mRNA in hamster liver by PPARα ligands. […] After 16 hours, the tissues were harvested, total RNA isolated and levels of hamster PDK-4 mRNA were detected by RT-PCR. The values are normalized to 18S rRNA levels. The mean and SEM of three individual animals are shown.
PDK-4 plays a critical role in regulating glucose metabolism by phosphorylating and inactivating the pyruvate dehydrogenase complex in response to increased fatty acid oxidation. […] To investigate the response of PDK-4 to fibrate treatment in vivo, in another aspect of the present invention the fat-fed hamster model was employed, which closely mimics the serum lipid profiles of humans than other rodent models (Sullivan et al., (1993) Lab. Anim. Sci. 43:575-578). […] These doses were previously shown to yield maximal effects on blood triglycerides in hamster. […] In hamster kidney, the basal levels of PDK-4 mRNA were approximately 10-fold higher than in the liver (FIG. 4B). […] Fibrates are effective treatments for lowering serum triglyceride levels. To verify that the doses used in this study were efficacious, blood triglyceride levels were monitored over a 48 hour time course.
Real-time PCR: Fluorescence-based real-time PCR was performed essentially as described (Abbaszade et al., (1999) J. Biol. Chem. 274:23443-23450). […] Taqman-based real-time PCR expression profiling was performed using 25 ng of each cDNA according to the manufacturer's (PE Biosystems) instructions with fluorescence being monitored in real-time with an ABI Prism 7700 (PE Biosystems). Relative expression levels were determined essentially as described (Gibson et al., (1996) Genome Res. 6:995-1001) using standard curves for each transcript. Relative abundance was then determined from these standard curves, subtracting mRNA levels obtained from negative control reactions performed in the absence of reverse transcriptase, and normalized to 18S rRNA levels. […]

Compound: CCCCCCCN(CCc1ccc(SC(C)(C)C(=O)O)cc1)C(=O)Nc1ccc(F)cc1F [GW9578, ureido-thioisobutyric acid]
- Changes in gene expression in Caki-1 cells [1]: only minor changes
- Induction of PDK-4 mRNA levels in the liver [2]: 200 fold

Source: patent US20040106135A1, “Assay for PPAR ligand dependent gene modulation” (priority 2002, published 2004)
